Format in all cases: in vivo, rat
One data set concerns rats. The data set can be described thus: Test of comparison of gastric mucosal injury in rats (index of gastric mucosal bleeding). The conditions noted are these: Table 16.
The next data set has as its system SD rats. As to the kind of experiment: Test of antiplatelet aggregation effect (bleeding time) in rats. As to the method:
(§1) Animal tests supporting the effects of the present invention were carried out as described in Table 10 below. [table]

Another data set concerns SHR rats. The data set can be described thus: Test of antihypertensive effect in rats. The following applies: light, p.o. The method, then:
as §1

Setting [1] is: Day 0, simvastatin 5 mg/kg alone.
The mark [2] stands for this setting: Day 5, simvastatin 5 mg/kg alone.

As for `CC(=O)Oc1ccccc1C(=O)O` [aspirin], in the data set with rats, the “occurrence of gastrointestinal disturbance” value was “increased in proportion to an increase in the dose of aspirin”. In the data set with SD rats (rats, bleeding time, summary of Table 12), the “platelet aggregation inhibitory effect” value is reported as “increased in proportion to the dose of aspirin”.

Regarding `CCC(C)(C)C(=O)O[C@H]1C[C@@H](C)C=C2C=C[C@H](C)[C@H](CC[C@@H]3C[C@@H](O)CC(=O)O3)[C@H]21` [simvastatin], in the data set with SHR rats (setting [1]), the “Diastolic blood pressure (DBP)” value came to 124.3 ± 15.5, the “Mean blood pressure (MBP)” value turned out to be 139.0 ± 12.4 and the “Systolic blood pressure (SBP)” value is listed as 171.0 ± 8.7. For the same molecule, in the data set with SHR rats (setting [2]), the “Diastolic blood pressure (DBP)” value was determined as 125.1 ± 17.1, the “Mean blood pressure (MBP)” value worked out at 131.3 ± 12.6 and the “Systolic blood pressure (SBP)” value turned out to be 173.9 ± 9.2. In the data set on SD rats (SD rats, simvastatin alone, light conditions, p.o., 2 hrs after administration), this molecule had a Bleeding time of 782 ± 429 s.

The values above are taken from patent US20120015032A1, “COMBINATION PREPARATION COMPRISING INHIBITOR OF HMG-COA REDUCTASE AND ASPIRIN AND METHOD FOR MANUFACTURING THE SAME” (HANALL PHARMACEUTICAL COMPANY, LTD., priority 2007, published 2012).
